Assay results from patent US9255093B2, “Polycyclic HERG activators” (NOVARTIS AG, priority 2014, dated 2016).
Marks after values point to notes of the source that are not given here.

Molecular target: T1, hERG (human ether-a-go-go-related gene) potassium channel (Homo sapiens, UniProt Q12809)
Assay: QPatch automated patch-clamp hERG activator 4-concentration EC50 assay
Details: increase of hERG tail current amplitude at 7 second (TL7); 3.3 uM (footnote *); hERG stably expressed in CHO cells
Text: A patch-clamp assay on the QPatch© automated patch clamp system was employed to assesses whether compounds functionally enhance the cardiac delayed rectifier hERG (human ether-a-go-go-related gene) potassium channel. The assay measures electric the current passing through hERG channels that are heterologously expressed in a stable Chinese hamster ovary (CHO) cell line. Channels are opened by a hERG-specific voltage protocol and the compound effect is directly characterized by the activation of the hERG current. EC50 values are obtained from fitting 4-concentration dose response curves (1.1, 3.3, 10 & 30 uM) in triplicates at 4 different sections of the voltage protocol (steady state current amplitude at +10 mV, at +30 mV, peak tail current amplitude and tail current amplitude at 7 second).

T1 sequence (Q12809 whole entry): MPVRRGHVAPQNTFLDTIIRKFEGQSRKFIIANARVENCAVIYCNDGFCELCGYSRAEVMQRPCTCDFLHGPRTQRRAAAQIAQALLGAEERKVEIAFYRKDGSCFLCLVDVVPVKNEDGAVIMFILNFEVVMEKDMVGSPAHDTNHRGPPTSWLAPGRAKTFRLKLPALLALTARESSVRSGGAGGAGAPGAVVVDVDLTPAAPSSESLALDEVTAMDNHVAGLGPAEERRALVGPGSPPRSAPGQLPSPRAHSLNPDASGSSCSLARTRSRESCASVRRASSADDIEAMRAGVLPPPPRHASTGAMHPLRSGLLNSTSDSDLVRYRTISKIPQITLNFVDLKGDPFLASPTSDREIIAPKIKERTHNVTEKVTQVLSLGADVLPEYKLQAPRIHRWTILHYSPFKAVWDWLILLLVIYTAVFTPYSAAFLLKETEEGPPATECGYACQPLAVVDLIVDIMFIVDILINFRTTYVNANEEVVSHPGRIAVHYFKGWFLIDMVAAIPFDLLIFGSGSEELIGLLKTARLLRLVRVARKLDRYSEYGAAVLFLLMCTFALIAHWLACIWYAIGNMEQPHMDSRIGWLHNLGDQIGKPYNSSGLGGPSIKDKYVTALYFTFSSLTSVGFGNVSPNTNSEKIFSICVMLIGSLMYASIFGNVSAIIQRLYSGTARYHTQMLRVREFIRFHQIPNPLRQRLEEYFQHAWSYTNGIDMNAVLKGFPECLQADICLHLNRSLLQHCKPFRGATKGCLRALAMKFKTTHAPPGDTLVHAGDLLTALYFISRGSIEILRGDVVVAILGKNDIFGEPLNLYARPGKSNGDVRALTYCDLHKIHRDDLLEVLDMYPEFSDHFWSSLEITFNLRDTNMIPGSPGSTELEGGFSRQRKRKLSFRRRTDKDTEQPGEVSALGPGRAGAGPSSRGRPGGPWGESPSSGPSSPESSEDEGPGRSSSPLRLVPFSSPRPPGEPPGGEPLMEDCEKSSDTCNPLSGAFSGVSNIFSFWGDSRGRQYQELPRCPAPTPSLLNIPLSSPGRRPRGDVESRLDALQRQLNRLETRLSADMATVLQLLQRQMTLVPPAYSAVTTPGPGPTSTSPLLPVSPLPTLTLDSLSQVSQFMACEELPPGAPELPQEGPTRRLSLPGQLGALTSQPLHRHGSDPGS

Row | SMILES | % change@TL7 (*@3.3 uM)
1 | Fc1cc2cc(-c3nnn[nH]3)oc2cc1CNc1ccc(C(F)(F)F)c(Br)c1 [Example 177] | 215* %

Same assay, conditions: increase of hERG tail current amplitude at 7 second (TL7); 10 uM; hERG stably expressed in CHO cells

Row | SMILES | % change@TL7@10 uM
2 | Cc1cc(NCc2ccc3cc(C(=O)O)oc3c2)ccc1OC(F)(F)F [Example 102] | 153%
3 | O=C(O)c1cc2ccc(CNc3ccc(OCC(F)(F)F)c(Cl)c3)cc2o1 [Example 108] | 82%
4 | FC1(F)Oc2ccc(NCc3ccc4cc(-c5nn[nH]n5)oc4c3)cc2C(F)(F)O1 [Example 219] | 71%
5 | Cc1cc(NCc2ccc3cc(-c4nn[nH]n4)oc3c2)ccc1OC(F)(F)F [Example 21] | 333%
6 | Clc1ccc(NCc2ccc3cc(-c4nn[nH]n4)oc3c2)cc1Br [Example 182] | 249%
7 | O=C(O)c1cc2cc(Cl)c(CNc3ccc(OC(F)F)c(C(F)(F)F)c3)cc2o1 [Example 223] | 176%
8 | Fc1cc2oc(-c3nnn[nH]3)cc2cc1CNc1ccc(Cl)c(Cl)c1 [Example 129] | 154%
9 | CCOc1ccc(NCc2ccc3cc(-c4nnn[nH]4)oc3c2Cl)cc1C(F)(F)F [Example 206] | 160%
10 | CCOc1ccc(NCc2cc3oc(-c4nnn[nH]4)cc3cc2F)cc1C(F)(F)F [Example 161] | 288%
11 | O=C(O)c1cc2ccc(CNc3cccc(N4CCOCC4)c3)cc2o1 [Example 109] | 81%
12 | O=C(O)c1cc2cc(F)c(CNc3ccc(OC(F)(F)F)c(Br)c3)cc2o1 [Example 227] | 188%
13 | CCCc1ccc(NCc2ccc3oc(-c4nnn[nH]4)cc3c2)cc1F [Example 79] | 101%
14 | CCOc1ccc(NCc2cc3oc(-c4nnn[nH]4)cc3cc2F)cc1Cl [Example 211] | 248%
15 | O=C(O)c1cc2cc(F)c(CNc3ccc(OC(F)F)c(C(F)(F)F)c3)cc2o1 [Example 230] | 244%
16 | FC(F)(F)Oc1ccc(NCc2ccc3cc(-c4nn[nH]n4)oc3c2)cc1Cl [Example 46] | 139%
17 | COc1cc2cc(-c3nnn[nH]3)oc2cc1CNc1ccc(OCC(F)(F)F)c(C(F)(F)F)c1 [Example 153] | 381%
18 | FC(F)(F)COc1ccc(NCc2ccc3cc(-c4nnn[nH]4)oc3c2Cl)cc1C(F)(F)F [Example 187] | 230%
19 | O=C(O)c1cc2cc(F)c(CNc3ccc(OC(F)(F)F)c(Cl)c3)cc2o1 [Example 226] | 182%
20 | FC(F)(F)c1ccc(NCc2ccc3cc(-c4nn[nH]n4)oc3c2)cc1C(F)(F)F [Example 52] | 95%
21 | FC(F)(F)COc1ccc(NCc2cc3cc(-c4nnn[nH]4)oc3cc2Cl)cc1C(F)(F)F [Example 135] | 181%
22 | FC(F)COc1ccc(NCc2cc3oc(-c4nnn[nH]4)cc3cc2Cl)cc1C(F)(F)F [Example 157] | 350%
23 | Fc1ccc(NCc2ccc3cc(-c4nn[nH]n4)oc3c2)cc1CC(F)(F)F [Example 58] | 71%
24 | CCCc1ccc(NCc2ccc3oc(-c4nnn[nH]4)cc3c2)cc1Cl [Example 71] | 193%

Row | SMILES | % change@TL7@10 uM
25 | FC(F)(F)Oc1ccc(NCc2ccc3c(C(F)(F)F)c(-c4nnn[nH]4)oc3c2)cc1Cl [Example 54] | 94%
26 | N#CCOc1ccc(NCc2ccc3cc(-c4nnn[nH]4)oc3c2Cl)cc1C(F)(F)F [Example 210] | 134%
27 | CCCc1ccc(NCc2cc3oc(-c4nnn[nH]4)cc3cc2Cl)cc1C(F)(F)F [Example 31] | 218%
28 | CSc1cccc(NCc2ccc3cc(C(=O)O)oc3c2)c1 [Example 97] | 159%
29 | O=C(O)c1cc2ccc(CNc3cc(C(F)(F)F)cc(C(F)(F)F)c3)cc2o1 [Example 116] | 31%
30 | CCOc1ccc(NCc2ccc3cc(-c4nn[nH]n4)oc3c2)cc1Br [Example 172] | 284%
31 | Fc1cc2oc(-c3nnn[nH]3)cc2cc1CNc1ccc(OC(F)(F)F)c(C(F)(F)F)c1 [Example 130] | 220%
32 | FC(F)(F)Oc1ccc(NCc2ccc3cc(-c4nn[nH]n4)oc3c2)cc1OC(F)(F)F [Example 41] | 160%
33 | CC(Nc1ccc2c(c1)OC(F)(F)O2)c1ccc2oc(-c3nnn[nH]3)cc2c1 (centres unmarked) [Example 83] | 36%
34 | O=C(O)c1cc2ccc(CNc3ccc(OC(F)(F)F)c(C(F)(F)F)c3)cc2o1 [Example 92] | 215%
35 | FC(F)(F)Oc1ccc(NCc2ccc3cc(-c4nn[nH]n4)oc3c2)cc1Br [Example 37, N-((2-(2H-tetrazol-5-yl)benzofuran-6-yl)methyl)-3-bromo-4-(trifluoromethoxy)aniline] | 170%
36 | FC(F)(F)c1ccc(NCc2cc3oc(-c4nnn[nH]4)cc3cc2Cl)cc1C(F)(F)F [Example 14] | 196%
37 | CCCc1ccc(NCc2ccc3cc(C(=O)O)oc3c2)cc1C(F)(F)F [Example 95] | 193%
38 | CCOc1ccc(NCc2ccc3c(C(F)(F)F)c(-c4nnn[nH]4)oc3c2)cc1C(F)(F)F [Example 56] | 88%
39 | CSc1cccc(NCc2ccc3cc(-c4nn[nH]n4)oc3c2)c1 [Example 28] | 260%
40 | Cc1c(-c2nnn[nH]2)oc2cc(CNc3ccc(OC(F)(F)F)c(Br)c3)ccc12 [Example 53] | 95%
41 | FC(F)(F)COc1ccc(NCc2cc3oc(-c4nnn[nH]4)cc3cc2Cl)cc1Cl [Example 8] | 128%
42 | O=C(O)c1cc2ccc(CNc3cc(Br)c(Br)c(Br)c3)cc2o1 [Example 85] | 397%
43 | CSc1ccc(NCc2ccc3cc(-c4nn[nH]n4)oc3c2)cc1C(F)(F)F [Example 26] | 267%
44 | O=C(O)c1cc2cc(F)c(CNc3ccc(SC(F)(F)F)c(Cl)c3)cc2o1 [Example 228] | 140%
45 | FC(F)(F)Sc1ccc(NCc2ccc3oc(-c4nnn[nH]4)cc3c2)cc1Cl [Example 64] | 348%
46 | CCCc1ccc(NCc2ccc3cc(C(=O)O)oc3c2)cc1Cl [Example 93] | 212%

Molecular target: T1, hERG (human ether-a-go-go-related gene) potassium channel
Assay: not given
Details: not given

Row | SMILES | % change@TL7@10 uM
47 | O=c1cc(C(F)(F)F)c2ccc(NCc3ccc4cc(-c5nn[nH]n5)oc4c3)cc2o1 [Example 222] | 41%
